Molecular target: hemolysin alpha from Staphylococcus aureus (Staphylococcus aureus, UniProt P09616)
Assay: cell-based

Sequence of hemolysin alpha from Staphylococcus aureus (P09616 27-319 limits assumed): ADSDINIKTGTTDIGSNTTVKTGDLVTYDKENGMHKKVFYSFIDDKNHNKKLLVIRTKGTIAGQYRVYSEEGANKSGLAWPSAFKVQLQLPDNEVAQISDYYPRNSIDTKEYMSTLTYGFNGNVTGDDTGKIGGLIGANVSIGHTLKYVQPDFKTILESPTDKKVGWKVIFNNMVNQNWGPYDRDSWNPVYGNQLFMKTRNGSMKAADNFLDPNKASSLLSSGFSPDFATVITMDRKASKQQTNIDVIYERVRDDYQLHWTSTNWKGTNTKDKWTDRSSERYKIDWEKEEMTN

Structure (SMILES)	IC50 [nM]	EC50 [nM]
Cc1ccc(-c2ccc(NS(=O)(=O)c3cc4[nH]c(=O)c(=O)[nH]c4cc3C)cc2)cc1 [Compound 115, 7-methyl-N-(4′-methyl-[1,1′-biphenyl]-4-yl)-2,3-dioxo-1,2,3,4-tetrahydroquinoxaline-6-sulfonamide]	100 to 1000	–
O=c1[nH]c2cc(F)c(S(=O)(=O)Nc3ccc(Br)c(Cl)c3)cc2[nH]c1=O [Compound 148, N-(4-bromo-3-chlorophenyl)-7-fluoro-2,3-dioxo-1,2,3,4-tetrahydroquinoxaline-6-sulfonamide]	100 to 1000	–
CC(C)(C)c1ccc(NS(=O)(=O)c2cc3[nH]c(=O)c(=O)[nH]c3cc2Br)cc1 [Compound 195, 7-bromo-N-(4-(tert-butyl)phenyl)-2,3-dioxo-1,2,3,4-tetrahydroquinoxaline-6-sulfonamide]	–	1000 to 3500
Cc1ccc(-c2ccc(NS(=O)(=O)c3cc4[nH]c(=O)c(=O)[nH]c4cc3F)cc2Cl)o1 [Compound 158, N-(3-chloro-4-(5-methylfuran-2-yl)phenyl)-7-fluoro-2,3-dioxo-1,2,3,4-tetrahydroquinoxaline-6-sulfonamide]	100 to 1000	–
Cc1nc2cc(NS(=O)(=O)c3cc4[nH]c(=O)c(=O)[nH]c4cc3C)ccc2s1 [Compound 234, 7-methyl-N-(2-methylbenzo[d]thiazol-5-yl)-2,3-dioxo-1,2,3,4-tetrahydroquinoxaline-6-sulfonamide]	–	1000 to 3500
Cc1cc2[nH]c(=O)c(=O)[nH]c2cc1S(=O)(=O)Nc1cc(C)c(-c2ccncc2)c(C)c1 [Compound 131, N-(3,5-dimethyl-4-(pyridin-4-yl)phenyl)-7-methyl-2,3-dioxo-1,2,3,4-tetrahydroquinoxaline-6-sulfonamide]	100 to 1000	–
Cc1ccc(NS(=O)(=O)c2cc3[nH]c(=O)c(=O)[nH]c3cc2C)cc1C [Compound 185, N-(3,4-dimethylphenyl)-7-methyl-2,3-dioxo-1,2,3,4-tetrahydroquinoxaline-6-sulfonamide]	1000 to 3500	–
Cc1cc2[nH]c(=O)c(=O)[nH]c2cc1S(=O)(=O)Nc1cc(Cl)c(-c2ccc(F)cc2)cn1 [Compound 212, N-(4-chloro-5-(4-fluorophenyl)pyridin-2-yl)-7-methyl-2,3-dioxo-1,2,3,4-tetrahydroquinoxaline-6-sulfonamide]	–	30 to 100
Cc1cc2[nH]c(=O)c(=O)[nH]c2cc1S(=O)(=O)Nc1ccc2cccnc2c1 [Compound 231, 7-methyl-2,3-dioxo-N-(quinolin-7-yl)-1,2,3,4-tetrahydroquinoxaline-6-sulfonamide]	–	100 to 1000
Cc1cc2[nH]c(=O)c(=O)[nH]c2cc1S(=O)(=O)Nc1ccc(-c2ccccc2)nc1 [Compound 224, 7-methyl-2,3-dioxo-N-(6-phenylpyridin-3-yl)-1,2,3,4-tetrahydroquinoxaline-6-sulfonamide]	–	100 to 1000
Cc1cc2[nH]c(=O)c(=O)[nH]c2cc1S(=O)(=O)Nc1ccc2ncccc2c1 [Compound 186, 7-methyl-2,3-dioxo-N-(quinolin-6-yl)-1,2,3,4-tetrahydroquinoxaline-6-sulfonamide]	1000 to 3500	–
Cc1cc(NS(=O)(=O)c2cc3[nH]c(=O)c(=O)[nH]c3cc2F)ccc1Br [Compound 163, N-(4-bromo-3-methylphenyl)-7-fluoro-2,3-dioxo-1,2,3,4-tetrahydroquinoxaline-6-sulfonamide]	100 to 1000	–
CCCc1ccc(NS(=O)(=O)c2cc3[nH]c(=O)c(=O)[nH]c3cc2C(C)C)cc1 [Compound 151, 7-isopropyl-2,3-dioxo-N-(4-propylphenyl)-1,2,3,4-tetrahydroquinoxaline-6-sulfonamide]	100 to 1000	–
Cc1cc2[nH]c(=O)c(=O)[nH]c2cc1S(=O)(=O)Nc1ccc(F)c(Cl)c1 [Compound 183, N-(3-chloro-4-fluorophenyl)-7-methyl-2,3-dioxo-1,2,3,4-tetrahydroquinoxaline-6-sulfonamide]	1000 to 3500	–
Cc1cc2[nH]c(=O)c(=O)[nH]c2cc1S(=O)(=O)Nc1ccc(N2CCOCC2)c(Cl)c1 [Compound 200, N-(3-chloro-4-morpholinophenyl)-7-methyl-2,3-dioxo-1,2,3,4-tetrahydroquinoxaline-6-sulfonamide]	–	1000 to 3500
Cc1ccc(-c2ccc(NS(=O)(=O)c3cc4[nH]c(=O)c(=O)[nH]c4cc3C)cc2)c(C)c1 [Compound 118, N-(2′,4′-dimethyl-[1,1′-biphenyl]-4-yl)-7-methyl-2,3-dioxo-1,2,3,4-tetrahydroquinoxaline-6-sulfonamide]	100 to 1000	–
Cc1cc2[nH]c(=O)c(=O)[nH]c2cc1S(=O)(=O)Nc1cc(C)c(-c2ccnn2C)c(C)c1 [Compound 188, N-(3,5-dimethyl-4-(1-methyl-1H-pyrazol-5-yl)phenyl)-7-methyl-2,3-dioxo-1,2,3,4-tetrahydroquinoxaline-6-sulfonamide]	1000 to 3500	–
O=c1[nH]c2cc(F)c(S(=O)(=O)Nc3ccc(C(F)(F)F)cc3)cc2[nH]c1=O [Compound 160, 7-fluoro-2,3-dioxo-N-(4-(trifluoromethyl)phenyl)-1,2,3,4-tetrahydroquinoxaline-6-sulfonamide]	1000 to 3500	–
Cc1cc(NS(=O)(=O)c2cc3[nH]c(=O)c(=O)[nH]c3cc2Cl)cc(C)c1-c1ccsc1 [Compound 80, 7-chloro-N-(3,5-dimethyl-4-(thiophen-3-yl)phenyl)-2,3-dioxo-1,2,3,4-tetrahydroquinoxaline-6-sulfonamide]	100 to 1000	–
Cc1cc2[nH]c(=O)c(=O)[nH]c2cc1S(=O)(=O)Nc1nc2ccccc2s1 [Compound 238, N-(benzo[d]thiazol-2-yl)-7-methyl-2,3-dioxo-1,2,3,4-tetrahydroquinoxaline-6-sulfonamide]	–	100 to 1000
Cc1cc2[nH]c(=O)c(=O)[nH]c2cc1S(=O)(=O)Nc1cc(C)c(-c2cn[nH]c2)c(C)c1 [Compound 187, N-(3,5-dimethyl-4-(1H-pyrazol-4-yl)phenyl)-7-methyl-2,3-dioxo-1,2,3,4-tetrahydroquinoxaline-6-sulfonamide]	1000 to 3500	–
Cc1cc2[nH]c(=O)c(=O)[nH]c2cc1S(=O)(=O)Nc1cnc(Br)c(Cl)c1 [Compound 236, N-(6-bromo-5-chloropyridin-3-yl)-7-methyl-2,3-dioxo-1,2,3,4-tetrahydroquinoxaline-6-sulfonamide]	–	1000 to 3500
Cc1cc(NS(=O)(=O)c2cc3[nH]c(=O)c(=O)[nH]c3cc2F)cc(C)c1Br [Compound 162, N-(4-bromo-3,5-dimethylphenyl)-7-fluoro-2,3-dioxo-1,2,3,4-tetrahydroquinoxaline-6-sulfonamide]	100 to 1000	–
Cc1cc2[nH]c(=O)c(=O)[nH]c2cc1S(=O)(=O)Nc1ccc2c(c1)OCCO2 [Compound 242, N-(2,3-dihydrobenzo[b][1,4]dioxin-6-yl)-7-methyl-2,3-dioxo-1,2,3,4-tetrahydroquinoxaline-6-sulfonamide]	–	100 to 1000
Cc1cc(NS(=O)(=O)c2cc3[nH]c(=O)c(=O)[nH]c3cc2F)cc(C)c1-c1ccoc1 [Compound 166, 7-fluoro-N-(4-(furan-3-yl)-3,5-dimethylphenyl)-2,3-dioxo-1,2,3,4-tetrahydroquinoxaline-6-sulfonamide]	100 to 1000	–
O=c1[nH]c2cc(F)c(S(=O)(=O)Nc3ccc4ccccc4c3)cc2[nH]c1=O [Compound 95, 7-fluoro-N-(naphthalen-2-yl)-2,3-dioxo-1,2,3,4-tetrahydroquinoxaline-6-sulfonamide]	100 to 1000	–

From patent publication US20240376084A1, “INHIBITORS OF ALPHA-HEMOLYSIN OF STAPHYLOCOCCUS AUREUS” (Helmholtz-Zentrum Fur Infektionsforschung GmbH, priority 2021, published 2024)
